PubChem BioAssay (NCI)
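Tested at 5 concentrations; 48 h exposure; 96-well plates; endpoints linearly interpolated, else capped at highest concentration. TGI denotes the concentration required for complete inhibition of growth.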

Experiments:
Assay in all cases: DTP human tumour cell line panel, 48 h
786-0 renal = test system: 786-0 renal
A498 renal = test system: A498 renal
A549 NSCLC = test system: A549 NSCLC
ACHN renal = test system: ACHN renal
CAKI-1 renal = test system: CAKI-1 renal
CCRF-CEM leukemia = test system: CCRF-CEM leukemia
COLO 205 colon = test system: COLO 205 colon
DLD-1 colon = test system: DLD-1 colon
DMS 114 small cell lung = test system: DMS 114 small cell lung
DMS 273 small cell lung = test system: DMS 273 small cell lung
EKVX NSCLC = test system: EKVX NSCLC
HCC-2998 colon = test system: HCC-2998 colon
HCT-116 colon = test system: HCT-116 colon
HCT-15 colon = test system: HCT-15 colon
HL-60(TB) leukemia = test system: HL-60(TB) leukemia
HOP-18 NSCLC = test system: HOP-18 NSCLC
HOP-62 NSCLC = test system: HOP-62 NSCLC
HOP-92 NSCLC = test system: HOP-92 NSCLC
HT29 colon = test system: HT29 colon
IGROV1 ovarian = test system: IGROV1 ovarian
K-562 leukemia = test system: K-562 leukemia
KM12 colon = test system: KM12 colon
KM20L2 colon = test system: KM20L2 colon
LOX IMVI melanoma = test system: LOX IMVI melanoma
LXFL 529 NSCLC = test system: LXFL 529 NSCLC
M14 melanoma = test system: M14 melanoma
M19-MEL melanoma = test system: M19-MEL melanoma
MALME-3M melanoma = test system: MALME-3M melanoma
MOLT-4 leukemia = test system: MOLT-4 leukemia
NCI-H226 lung = test system: NCI-H226 lung
NCI-H23 lung = test system: NCI-H23 lung
NCI-H460 lung = test system: NCI-H460 lung
NCI-H522 lung = test system: NCI-H522 lung
OVCAR-3 ovarian = test system: OVCAR-3 ovarian
OVCAR-4 ovarian = test system: OVCAR-4 ovarian
OVCAR-5 ovarian = test system: OVCAR-5 ovarian
OVCAR-8 ovarian = test system: OVCAR-8 ovarian
RPMI-8226 leukemia = test system: RPMI-8226 leukemia
RXF 393 renal = test system: RXF 393 renal
SF-268 CNS = test system: SF-268 CNS
SF-295 CNS = test system: SF-295 CNS
SF-539 CNS = test system: SF-539 CNS
SK-MEL-2 melanoma = test system: SK-MEL-2 melanoma
SK-MEL-28 melanoma = test system: SK-MEL-28 melanoma
SK-MEL-5 melanoma = test system: SK-MEL-5 melanoma
SK-OV-3 ovarian = test system: SK-OV-3 ovarian
SN12C renal = test system: SN12C renal
SNB-19 CNS = test system: SNB-19 CNS
SNB-75 CNS = test system: SNB-75 CNS
SR leukemia = test system: SR leukemia
SW-620 colon = test system: SW-620 colon
TK-10 renal = test system: TK-10 renal
U251 CNS = test system: U251 CNS
UACC-257 melanoma = test system: UACC-257 melanoma
UACC-62 melanoma = test system: UACC-62 melanoma
UO-31 renal = test system: UO-31 renal
XF 498 CNS = test system: XF 498 CNS
SNB-78 CNS = test system: SNB-78 CNS

COC(=O)/C(=N/NC(N)=O)C(C(=O)OC)C(=O)C(=O)Nc1ccc(Cl)cc1 (configuration not stated)
TGI (786-0 renal): > 100 µM
TGI (A498 renal): > 100 µM
TGI (A549 NSCLC): > 100 µM
TGI (ACHN renal): > 100 µM
TGI (CAKI-1 renal): > 100 µM
TGI (CCRF-CEM leukemia): > 75.5 µM
TGI (COLO 205 colon): > 100 µM
TGI (DLD-1 colon): > 100 µM
TGI (DMS 114 small cell lung): > 100 µM
TGI (DMS 273 small cell lung): > 100 µM
TGI (EKVX NSCLC): > 100 µM
TGI (HCC-2998 colon): > 100 µM
TGI (HCT-116 colon): > 100 µM
TGI (HCT-15 colon): > 100 µM
TGI (HL-60(TB) leukemia): > 100 µM
TGI (HOP-18 NSCLC): > 100 µM
TGI (HOP-62 NSCLC): > 100 µM
TGI (HOP-92 NSCLC): > 100 µM
TGI (HT29 colon): > 100 µM
TGI (IGROV1 ovarian): > 100 µM
TGI (K-562 leukemia): > 62.6 µM
TGI (KM12 colon): > 100 µM
TGI (KM20L2 colon): > 100 µM
TGI (LOX IMVI melanoma): > 100 µM
TGI (LXFL 529 NSCLC): > 100 µM
TGI (M14 melanoma): > 100 µM
TGI (M19-MEL melanoma): > 100 µM
TGI (MALME-3M melanoma): > 100 µM
TGI (MOLT-4 leukemia): > 100 µM
TGI (NCI-H226 lung): > 100 µM
TGI (NCI-H23 lung): > 100 µM
TGI (NCI-H460 lung): > 100 µM
TGI (NCI-H522 lung): > 100 µM
TGI (OVCAR-3 ovarian): > 100 µM
TGI (OVCAR-4 ovarian): > 100 µM
TGI (OVCAR-5 ovarian): > 100 µM
TGI (OVCAR-8 ovarian): > 100 µM
TGI (RPMI-8226 leukemia): > 100 µM
TGI (RXF 393 renal): > 100 µM
TGI (SF-268 CNS): > 100 µM
TGI (SF-295 CNS): > 100 µM
TGI (SF-539 CNS): > 100 µM
TGI (SK-MEL-2 melanoma): > 100 µM
TGI (SK-MEL-28 melanoma): > 100 µM
TGI (SK-MEL-5 melanoma): > 100 µM
TGI (SK-OV-3 ovarian): > 100 µM
TGI (SN12C renal): > 100 µM
TGI (SNB-19 CNS): > 100 µM
TGI (SNB-75 CNS): > 100 µM
TGI (SR leukemia): 46.5 µM
TGI (SW-620 colon): > 100 µM
TGI (TK-10 renal): > 100 µM
TGI (U251 CNS): > 100 µM
TGI (UACC-257 melanoma): > 100 µM
TGI (UACC-62 melanoma): > 100 µM
TGI (UO-31 renal): > 100 µM
TGI (XF 498 CNS): > 100 µM

COc1ccc(OC)c2c3c(ccc12)C(c1ccccc1)OC3=O (configuration not stated)
TGI (786-0 renal): > 100 µM
TGI (A498 renal): > 100 µM
TGI (A549 NSCLC): > 100 µM
TGI (ACHN renal): > 100 µM
TGI (CAKI-1 renal): > 100 µM
TGI (CCRF-CEM leukemia): > 100 µM
TGI (COLO 205 colon): > 100 µM
TGI (DLD-1 colon): > 100 µM
TGI (DMS 114 small cell lung): > 100 µM
TGI (DMS 273 small cell lung): > 100 µM
TGI (EKVX NSCLC): > 100 µM
TGI (HCC-2998 colon): > 100 µM
TGI (HCT-116 colon): > 100 µM
TGI (HCT-15 colon): > 100 µM
TGI (HL-60(TB) leukemia): > 100 µM
TGI (HOP-18 NSCLC): > 100 µM
TGI (HOP-62 NSCLC): > 100 µM
TGI (HT29 colon): > 100 µM
TGI (IGROV1 ovarian): > 100 µM
TGI (K-562 leukemia): > 100 µM
TGI (KM12 colon): > 100 µM
TGI (KM20L2 colon): > 100 µM
TGI (LOX IMVI melanoma): > 100 µM
TGI (LXFL 529 NSCLC): > 100 µM
TGI (M14 melanoma): > 100 µM
TGI (M19-MEL melanoma): > 100 µM
TGI (MALME-3M melanoma): > 100 µM
TGI (MOLT-4 leukemia): 99.7 µM
TGI (NCI-H226 lung): > 100 µM
TGI (NCI-H23 lung): > 100 µM
TGI (NCI-H460 lung): > 100 µM
TGI (NCI-H522 lung): > 100 µM
TGI (OVCAR-3 ovarian): 79.9 µM
TGI (OVCAR-4 ovarian): > 100 µM
TGI (OVCAR-5 ovarian): > 100 µM
TGI (OVCAR-8 ovarian): > 100 µM
TGI (RPMI-8226 leukemia): > 100 µM
TGI (RXF 393 renal): > 100 µM
TGI (SF-268 CNS): > 100 µM
TGI (SF-295 CNS): > 100 µM
TGI (SK-MEL-2 melanoma): > 100 µM
TGI (SK-MEL-28 melanoma): > 100 µM
TGI (SK-MEL-5 melanoma): > 100 µM
TGI (SK-OV-3 ovarian): > 100 µM
TGI (SN12C renal): > 100 µM
TGI (SNB-19 CNS): > 100 µM
TGI (SNB-75 CNS): > 100 µM
TGI (SNB-78 CNS): 64.9 µM
TGI (SR leukemia): > 100 µM
TGI (SW-620 colon): > 100 µM
TGI (TK-10 renal): > 100 µM
TGI (U251 CNS): > 100 µM
TGI (UACC-257 melanoma): > 100 µM
TGI (UACC-62 melanoma): > 100 µM
TGI (UO-31 renal): > 100 µM
